From patent US20250170085A1, “TOPICAL FORMULATION TO DECREASE SKIN INFLAMMATION OR REDNESS” (University of Pittsburgh - Of the Commonwealth System of …, priority 2022, published 2025)

Key:
[1] = Protocol: The four β-alanine formulations (0%, 2.5%, 5.0%, and 7.5% w/w β-alanine) were sequentially applied to a different location of each patient's cheek skin by a physician. Subjective scoring for itch (0 (none) to 10 (maximum itch)) was recorded over a 5-minute period. Symbols on the bar graph represent individual patients (n=16). Bar height indicates the average value. […] P-values were calculated using a nonparametric ANOVA Kruskai-Wallis test.
β-alanine powder (GNC, #369898) was mixed into Versapro® Cream at a concentration of 0%, 2.5%, 5.0% or 7.5% w/w. The ingredients of Versapro® Cream include water, aloe Barbadensis leaf juice, cyclopentasiloxane, disodium EDTA, emulsifying wax NF, ethylhexglyglycering, ethylhexyl stearate, phenoxyethanol, sorbitol, and tocopheryl acetate. The mixture was agitated until homogenous.
A cohort of patients without skin disease were selected for testing (n=16). Each patient had 0.1 ml of cream applied to cheek skin by a physician. Over the course of 5 minutes, the patients reported the intensity of pruritus (itching) on a scale of 0 (no itching) to 10 (maximal itching). The process was repeated for all four formulations (0%, 2.5%, 5.0% or 7.5% w/w β-alanine) using different areas of cheek skin. The efficacy of topical J3-alanine was determined based on the development of pruritus.

[2] = Patient-reported itching after facial application of 5% w/w β-alanine cream with menthol; type: in vivo, human
Excerpt: (§1) FIGS. 2A and 2B show subjective patient-reported scoring for itch (FIG. 2A) and overall discomfort (FIG. 2B) of facially applied cream containing 5% w/w β-alanine and the indicated concentration of menthol. Each of the four formulations (0%, 0.5%, 1.0%, and 1.5% w/w menthol with 5% w/w f-alanine) were sequentially applied to different locations of a patient's cheek skin by a physician. Scoring was on a scale of 0 to 10, with 0 being no itch or discomfort and 10 being maximum itch or discomfort. Each symbol represents an individual patient (n=10). Bar height indicates the average value. Error bars represent +/−SEM. * P<0.05; ** P<0.01. P-values were calculated using a nonparametric ANOVA Kruskai-Wallis test.
A cohort of patients without inflammatory skin conditions (n=10) was given four different topical formulations for facial application. All four formulations contained 5% w/w β-alanine in Versapro® Cream (see, e.g., Example 1), however, each contained a different concentration of menthol (0.0%, 0.5%, 1.0%, and 1.5% w/w). A physician sequentially applied 0.1 ml of each formulation to distinct areas of the cheek with a 10 minute pause between each application. Patients were asked to rate the degree of itching and overall discomfort on a scale of 0 (no itching) to 10 (maximal itching) over the course of 5 minutes. […]

[3] = Patient-reported overall discomfort (eye irritation, cold sensation) after facial application of 5% w/w β-alanine cream with menthol; type: in vivo, human; conditions: for overall discomfort, scale 0 to 10: attributable to eye irritation and an unpleasant cold sensation
Excerpt: as §1
A cohort of patients without inflammatory skin conditions (n=10) was given four different topical formulations for facial application. All four formulations contained 5% w/w β-alanine in Versapro® Cream (see, e.g., Example 1), however, each contained a different concentration of menthol (0.0%, 0.5%, 1.0%, and 1.5% w/w). A physician sequentially applied 0.1 ml of each formulation to distinct areas of the cheek with a 10 minute pause between each application. Patients were asked to rate the degree of itching and overall discomfort on a scale of 0 (no itching) to 10 (maximal itching) over the course of 5 minutes. The same process was repeated for the 0.5%, 1.0% and 1.5% w/w menthol containing formulations.

[4] = 0.5% w/w menthol in 5% w/w β-alanine cream

intensity of pruritus (itching), scale 0 to 10 ([1]; 2.5% w/w β-alanine in Versapro Cream, 0.1 ml on cheek skin, over 5 minutes, patients without skin disease (n=16))	duration of pruritus triggered by topical cream ([1]; topical β-alanine cream on cheek skin)	SMILES	intensity of itching [2, 4]	degree of itching, scale 0 to 10 ([2]; all concentrations of menthol (0.5%, 1.0%, 1.5% w/w) in 5% w/w β-alanine Versapro Cream, 0.1 ml on cheek, over 5 minutes, n=10)	eye discomfort [3, 4]	overall discomfort, scale 0 to 10 ([3]; 1.0% w/w menthol in 5% w/w β-alanine cream)	overall discomfort, scale 0 to 10 ([3]; 1.5% w/w menthol in 5% w/w β-alanine cream)
evident	less than 5 minutes	NCCC(=O)O [β-alanine, 3-aminopropanoic acid]					
		CC1CCC(C(C)C)C(O)C1 (stereo not shown) [menthol, 5-methyl-2-(propan-2-yl)cyclohexan-1-ol]	successfully decreased	notably reduced	without promoting eye discomfort	increased	increased
